# Measured values as given in patent publication US11046690B2, “Pyridazinones and methods of use thereof” (Goldfinch Bio, Inc., priority 2018, dated 2021).
# Target: T1, TRPC4 (Homo sapiens, UniProt Q9UBN4)
# T1 construct: expressed in transfected cells
# T1 sequence (Q9UBN4 1-982 isoform Q9UBN4-5): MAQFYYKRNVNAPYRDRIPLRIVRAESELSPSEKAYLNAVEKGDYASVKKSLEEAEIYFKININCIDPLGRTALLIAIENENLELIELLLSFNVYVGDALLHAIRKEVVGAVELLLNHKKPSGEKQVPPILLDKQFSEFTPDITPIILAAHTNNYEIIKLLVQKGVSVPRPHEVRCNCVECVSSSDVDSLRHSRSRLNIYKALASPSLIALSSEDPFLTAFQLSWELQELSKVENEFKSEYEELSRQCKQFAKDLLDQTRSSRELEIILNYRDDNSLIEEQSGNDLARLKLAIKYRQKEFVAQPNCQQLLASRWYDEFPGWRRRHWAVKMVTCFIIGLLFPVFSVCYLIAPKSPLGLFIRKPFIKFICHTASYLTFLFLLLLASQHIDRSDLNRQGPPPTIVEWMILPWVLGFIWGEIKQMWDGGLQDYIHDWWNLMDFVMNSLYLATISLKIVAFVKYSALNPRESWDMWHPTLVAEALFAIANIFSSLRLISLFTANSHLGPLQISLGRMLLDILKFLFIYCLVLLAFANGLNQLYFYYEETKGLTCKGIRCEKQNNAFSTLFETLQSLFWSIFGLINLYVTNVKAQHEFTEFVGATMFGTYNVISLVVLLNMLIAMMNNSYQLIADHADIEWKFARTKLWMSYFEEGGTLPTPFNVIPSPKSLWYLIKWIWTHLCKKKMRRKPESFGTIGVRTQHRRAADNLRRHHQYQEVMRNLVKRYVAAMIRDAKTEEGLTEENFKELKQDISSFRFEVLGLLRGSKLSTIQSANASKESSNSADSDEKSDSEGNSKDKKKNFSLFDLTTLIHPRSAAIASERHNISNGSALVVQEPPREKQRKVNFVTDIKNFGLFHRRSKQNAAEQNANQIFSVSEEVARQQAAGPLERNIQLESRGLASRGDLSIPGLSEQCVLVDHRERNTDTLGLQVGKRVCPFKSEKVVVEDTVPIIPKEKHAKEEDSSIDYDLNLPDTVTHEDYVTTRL
# Assay: TRPC4 activity assay (FLIPR calcium fluorescence, Englerin A stimulation)
# Type: cell-based
# Details: HEK-TREx hTRPC4 cells, 100 nM Englerin A stimulation; read-out: TRPC4 (IC50 class)
# Procedure: ICLN-1694 cells (HEK-TREx hTRPC4) expressing TRPC4 were generated as follows. Commercially available HekTrex-293 cells were seeded at 0.7×10^6 cells/well in a 1×6-well plate 24 hrs prior to transfection using 2 mL cell growth media containing no antibiotics (1× DMEM/high glucose (Hyclone #SH30022.02); 10%0/fetal bovine serum (Sigma) 2 mM sodium pyruvate, 10 mM HEPES). […] On day 2, 2 μg of plasmid DNA plus 6 μl of Xtreme-GENE HP reagent in Optimem (200 μl total volume) was prepared and incubated for 15 min at room temperature. This plasmid solution was then gently overlayed dropwise onto each well and the plate was gently swirled to mix complex with the media for approximately 30 seconds. Transfected cells were incubated at 37° C. in a 10% C02 incubator for 24 hrs. The transfected cells were harvested and transferred into 2×150 mm dishes containing cell growth media with no antibiotics at 37° C.
# The next day selection was initiated to generate a stable pool by adding cell growth media containing 150 μg/mL Hygromycin and 5 μg/mL Blasticidin and cells were allowed to grow. Media with the selection agent was changed every 1-2 days as needed to remove dead cells. After 7 days, the hygromycin concentration was reduced to 75 μg/mL and cells growth was allowed to continue.
# Single clones were selected as follows. The stable pool was diluted to 10 cells/mL and seeded (100 μl/well) into 24×96 well plates (˜1 cell/well) and allowed to grow for 7 days in cell growth media. Fresh media (100 μl) was added and the cells allowed to grow for another 1-2 weeks and then stored frozen or used immediately.
# 10-point dose response curves were generated using the Echo-550 acoustic dispenser. Compound source plates were made by serially diluting compound stocks to create 10 mM, 1 mM, and 0.1 mM solutions in DMSO into Echo-certified LDV plates. The Echo then serially spotted 100% DMSO stock solutions into source dose response plates to generate a 4-fold dilution scheme. 100% DMSO was added to the spotted dose response plates to bring the final volume to 5 μl. […] of the dose response stock plate was then spotted into pre-incubation and stimulation assay plates. 50 μl of pre-incubation buffer and 100 μl of stimulation buffer was then added to the plates resulting in a final assay test concentration range of 30 μM to 0.0001 μM with a final DMSO concentration of 0.3%.
# ICLN-1694 cells (HEK-TREx hTRPC4) were plated onto 384 well, black pdl-coated microplates and maintained in cell growth media supplemented with 1 μg/mL tetracycline the day prior to use for experiments. TRPC4 expression was induced by the application of 1 μg/mL tetracycline at the time of plating. […] Cells were incubated at room temperature, protected from light, for 60-90 minutes. After the incubation period, the dye was removed and replaced with 10 μl of EBSS. Cell, pre-incubation and stimulation plates were loaded onto the FLIPR-II and the assay was initiated. The FLIPR measured a 10 second baseline and then added 10 μl of 2X compounds (or controls). Changes in fluorescence were monitored for an additional 5 minutes. After a 5 minute pre-incubation, 20 μl of 2X Englerin A (with 1X compound or controls) was added to the cell plate. The final Englerin A stimulation concentration in the assay was 100 nM. After the Englerin A addition, changes in fluorescence were monitored for an additional 5 minutes.
# Compound modulation of TRPC4 calcium response was determined as follows. After the Englerin A, fluorescence was monitored for a 5-minute period. The maximum relative fluorescence response (minus the control response of 1 μM of an internal control compound known to maximally block TRPC4 calcium response, the “REF INHIB” in the formula below) was captured and exported from the FLIPR.
# Compound effect is calculated as % inhibition using the following formula:
# [formula] wherein “RFU” is the relative fluorescent units.
row,IC50 [nM],SMILES
1,< 50,O=c1[nH]ncc(N2CCc3c(ncnc3Oc3ccccc3Cl)C2)c1Cl [Compound 101]
2,< 50,Nc1nc2c(c(Oc3ccccc3C(F)(F)F)n1)CCN(c1cn[nH]c(=O)c1Cl)C2 [Compound 102]
3,< 50,"O=c1[nH]ncc(N2CCc3c(ncnc3Oc3ccccc3C(F)F)C2)c1Cl [Compound 103, 4-Chloro-5-[4-[2-(difluoromethyl)phenoxy]-5H,6H,7H,8H-pyrido[3,4-d]pyrimidin-7-yl]-2,3-dihydropyridazin-3-one]"
4,< 50,O=c1[nH]ncc(N2CCc3c(ncnc3Oc3ccc(F)cc3C(F)F)C2)c1Cl [Compound 105]
5,50 to 500,O=c1[nH]ncc(N2CCc3c(ncnc3Oc3cc(F)ccc3C(F)(F)F)C2)c1Cl [Compound 106]
6,50 to 500,O=c1[nH]ncc(N2CCc3c(ncnc3Oc3cnccc3C(F)(F)F)C2)c1Cl [Compound 107]
7,500 to 1000,"N#Cc1cccc(Oc2ncnc3c2CCN(c2cn[nH]c(=O)c2Cl)C3)c1Cl [Compound 108, 2-Chloro-3-[[7-(5-chloro-6-oxo-1,6-dihydropyridazin-4-yl)-5H,6H,7H,8H-pyrido[3,4-d]pyrimidin-4-yl]oxy]benzonitrile]"
8,50 to 500,"CCc1c(F)cccc1Oc1ncnc2c1CCN(c1cn[nH]c(=O)c1Cl)C2 [Compound 109, 4-Chloro-5-[4-(2-ethyl-3-fluorophenoxy)-5H,6H,7H,8H-pyrido[3,4-d]pyrimidin-7-yl]-2,3-dihydropyridazin-3-one]"
9,< 50,"COc1nc2c(c(Oc3ccccc3C(F)(F)F)n1)CCN(c1cn[nH]c(=O)c1Cl)C2 [Compound 110, 4-Chloro-5-[2-methoxy-4-[2-(trifluoromethyl)phenoxy]-5H,6H,7H,8H-pyrido[3,4-d]pyrimidin-7-yl]-2,3-dihydropyridazin-3-one]"
10,50 to 500,"Nc1nc2c(c(Oc3ccc(F)cc3Cl)n1)CCN(c1cn[nH]c(=O)c1Cl)C2 [Compound 112, 5-[2-amino-4-(2-chloro-4-fluorophenoxy)-5H,6H,7H,8H-pyrido[3,4-d]pyrimidin-7-yl]-4-chloro-2,3-dihydropyridazin-3-one]"
11,50 to 500,Nc1nc2c(c(Oc3ccccc3Cl)n1)CCN(c1cn[nH]c(=O)c1Cl)C2 [Compound 113]
12,< 50,O=c1[nH]ncc(N2CCc3c(nc(CO)nc3Oc3ccc(F)cc3Cl)C2)c1Cl [Compound 114]
13,50 to 500,"O=c1[nH]ncc(N2CCc3c(nc(NCCO)nc3Oc3ccccc3C(F)(F)F)C2)c1Cl [Compound 115, 4-chloro-5-[2-[(2-hydroxyethyl)amino]-4-[2-(trifluoromethyl)phenoxy]-5H,6H,7H,8H-pyrido[3,4-d]pyrimidin-7-yl]-2,3-dihydropyridazin-3-one]"
14,< 50,Nc1nc2c(c(Oc3ccc(F)cc3C(F)(F)F)n1)CCN(c1cn[nH]c(=O)c1Cl)C2 [Compound 116]
15,50 to 500,"C[C@@H]1c2ncnc(Oc3ccc(F)cc3Cl)c2CCN1c1cn[nH]c(=O)c1Cl [Compound 118, 4-chloro-5-[(8R)-4-(2-chloro-4-fluorophenoxy)-8-methyl-5H,6H,7H,8H-pyrido[3,4-d]pyrimidin-7-yl]-2,3-dihydropyridazin-3-one]"
16,< 50,C[C@@H](O)c1nc2c(c(Oc3ccc(F)cc3Cl)n1)CCN(c1cn[nH]c(=O)c1Cl)C2 [Compound 119]
17,< 50,"O=c1[nH]ncc(N2CCc3c(ccnc3Oc3ccc(F)cc3C(F)(F)F)C2)c1Cl [Compound 120, 4-chloro-5-[5-[4-fluoro-2-(trifluoromethyl)phenoxy]-1,2,3,4-tetrahydro-2,6-naphthyridin-2-yl]-2,3-dihydropyridazin-3-one]"
